# Data published in patent publication US8257755B2, “Metabolic syndrome-improving agent and medicine, supplement, functional food and food additive containing the same” (ARKRAY, Inc., priority 2005, dated 2012).
# Columns and labels:
# [1] = system: HepG2 cells (human hepatic cells); experiment: VLDL secretion inhibition experiment in HepG2 cells (apoB100 ELISA); assay type: cell-based; settings: 30 hours, measurement group/control group, DMSO control = 100, average ± standard error
# Procedure: A sandwich ELISA that recognized human apoB100 in the VLDL as an antigen was used. First, 100 μL of Moab×LDL Apolipoprotein B (ApoB) (manufactured under MONOSAN®) was dispensed in each well of ELISA PLATE, and the plate was sealed with a sterile seal and then allowed to stand still at 4° C. overnight. In the following, all the dispensing mentioned is for a single well. On the next day, 200 μL of Zepto Block (trade name, manufactured by ZeptoMetrix Corporation) was dispensed, and then the above-noted plate was sealed and allowed to stand still for 2 hours at room temperature for blocking. Subsequently, 100 μL of the medium and the VLDL standard solution were dispensed, and then the plate was sealed and allowed to stand still for 1 hour at room temperature. Washing with 200 μL of PBST and absorption using an aspirator were carried out five times in total. Then, 100 μL of Affinity Purified Anti-Apolipoprotein B (manufactured by Rockland Immunochemicals, Inc.) that had been diluted with PBS by 1000 times was dispensed and allowed to stand still for 1 hour at room temperature. After washing similarly to the above, 100 μL of Donkey Anti-goat IgG HRP (manufactured by Promega Corporation) that had been diluted with PBS by 5000 times was dispensed and allowed to stand still for 1 hour at room temperature. […] 100 μL of 1M phosphoric acid solution was added to the above-noted mixture solution, and the absorbance at 450 nm was measured using wallac ARVOsx (trade name, PerkinElmer Life Sciences, PerkinElmer, Inc.). […]
# HepG2 was cultured to 80% to 90% confluence in a 100 mm/Collagen-Coated Dish (trade name, manufactured by Iwaki Glass Works, Co.). […] Using this collected medium, the number of living cells were counted, and the Western blotting and the ELISA measurement were carried out similarly to the above. From the result of the ELISA, the ratio of the VLDL secretion amount between the measurement group and the non-treated control group (measurement group/control group) was calculated for each sample.
# [2] = system: HepG2 cells (human hepatic cells); experiment: Counting of the number of living cells (CellTiter 96 Aqueous One) in HepG2; assay type: cell-based; settings: 30 hours, measurement group/control group, DMSO control = 100
# Procedure: HepG2 was cultured to 80% to 90% confluence in a 100 mm/Collagen-Coated Dish (trade name, manufactured by Iwaki Glass Works, Co.). The medium was removed from the above-noted dish with a pipette and then HepG2 was washed with 2 mL of 1×PBS. Then, 2 mL of trypsin-EDTA was added, the above-noted dish was rotated slowly so that the trypsin-EDTA spread over the entire cells, this trypsin-EDTA was removed with a pipette, and the dish was allowed to stand still for 15 minutes in a CO2 incubator (37° C., 5%). To this dish, 12 mL of a growth medium was added, followed by mixing by pipetting, and 1 mL of this mixture solution was dispensed in each well of Collagen-Coated Microplates 12Well/Flat Bottom (trade name, manufactured by Iwaki Glass Works, Co.). After the cells were checked using a microscope, the wells were cultured in a CO2 incubator (37° C., 5%) for one to two days. After checking that 80% to 90% confluence was achieved using the microscope, a medium replacement was carried out by removing the medium and adding 800 μL of a medium containing bergamottin. […] Using this collected medium, the number of living cells were counted, and the Western blotting and the ELISA measurement were carried out similarly to the above. From the result of the ELISA, the ratio of the VLDL secretion amount between the measurement group and the non-treated control group (measurement group/control group) was calculated for each sample.
# The measurement was made using CellTiter 96 Aqueous One Solution Cell Proliferation Assay (trade name, manufactured by Promega Corporation). […] 100 μL of this mixture solution was dispensed to each of three wells of ELISA PLATE 96well (trade name, manufactured by Iwaki Glass Works, Co.), and the absorbance at 490 nm was measured. The measurement was made using wallac ARVOsx (trade name, PerkinElmer Life Sciences, PerkinElmer, Inc.), and the mode of measurement was Absorbance (490 nm, 1.0 S). The ratio of the number of living cells between the measurement group and the non-treated control group (measurement group/control group) was calculated for each sample.
smiles,measurement,setting,value
"CC(C)=CCC/C(C)=C/COc1c2ccoc2cc2oc(=O)ccc12 [Bergamottin, bergamottin]",VLDL secretion ratio (%),[1]; 10 μM,63.4 ± 10.94%
same,VLDL secretion ratio (%),[1]; 20 μM,65.5 ± 13.21%
same,VLDL secretion ratio (%),[1]; 50 μM,45.9 ± 6.29%
same,Number of living cells (%),[2]; 10 μM,99.6%
same,Number of living cells (%),[2]; 20 μM,97.2%
same,Number of living cells (%),[2]; 50 μM,99.8%
